In patent US20150209313A1 (priority 2014, published 2015):
Entries after “also recorded” stand apart in the source; their conditions may differ. Read-outs that look alike come from different tables or passages of the source.

Key:
[1] = target: neuraminidase, Influenza Virus A/California/07/2009 H1N1 (Oseltamivir sensitive) (Influenza A virus (A/California/07/2009(H1N1)), UniProt C3W6G3); type: biochemical
[2] = test system: Influenza Virus A/Maryland/04/2011 H1N1; type: cell-based
[3] = test system: Influenza Virus A/California/07/2009 H1N1; type: cell-based

CCOC(=O)C1=C[C@@H](OC(CC)CC)[C@H](NC(C)=O)[C@@H](N)C1 [Oseltamivir]
Average Fluorescence ([1]; 0.005 nM): 66385.00 | Average Fluorescence ([1]; 0.05 nM): 56340.00 | Average Fluorescence ([1]; 0.5 nM): 32060.00 | Average Fluorescence ([1]; 5 nM): 7802.00 | Average Fluorescence ([1]; 50 nM): 1215.00 | Average Fluorescence ([1]; 500 nM): 354.00 | Average Fluorescence ([1]; 5,000 nM): 179.00 | Average Fluorescence ([1]; 50,000 nM): 365.00 | plaque inhibitory effect (in words) [2]: only partially sensitive; also recorded: reduced oseltamivir susceptibility | plaque inhibitory effect (in words) [3]: sensitive to this drug to 1 μM; also recorded: inhibitory effects
